The test system of experiment [1] is Flk1+ mesoderm cells from EMG7 mouse ES cells. As to the kind of experiment: Cardiomyocyte induction from ES cell-derived Flk1+ mesoderm cells on OP9 (experiment 1). The experiment is classed as cell-based. To be noted: added to Flk1+ cells.
Procedure: Undifferentiated ES cells were cultured on OP9 cells or type IV collagen (Col. IV)-coated dishes (ES-d0) for 96-108 h in differentiation medium (see Methods) to induce differentiation to Flk1^+ cells. Flk1^+/E-cadherin^− mesoderm cells obtained by FACS were plated onto OP9 stroma cells to induce further differentiation to cardiomyocytes (designated as Flk-d0). FCV cells appeared at Flk-d2 as Flk1^+/CXCR4^+/vascular endothelial cadherin^− population. Beating colonies started to be observed by Flk-d4. Appearance of alpha-MHC promoter-driven GFP^+ cardiomyocytes were evaluated and collected at Flk-d6. Experiment 1: differentiation from mesoderm to cardiomyocytes. […] Experiment 2: differentiation from undifferentiated ES cells to mesoderm. […] Experiment 3: differentiation from mesoderm to cardiac progenitors. […] Experiment 4: differentiation from cardiac progenitors to cardiomyocytes.
After 96-108 h of ES cell differentiation, cultured cells were harvested and stained with allophycocyanin (APC)-conjugated AVAS12 and FITC-conjugated ECCD2. […] PKH-negative populations were analyzed and sorted as ES cell-derived cells. […] For FACS for cardiomyocytes, cells were harvested after 6 days culture of Flk1^+ cells on OP9 cells (Flk-d6), GFP^+ population was evaluated and sorted as differentiated cardiomyocytes.
A further experiment relates to Flk1+ cells. As to the kind of experiment: Mesoderm-specific treatment Flk-d0-2, cardiomyocytes at Flk-d6 (experiment 5). The experiment is classed as cell-based, mouse. To be noted: added only Flk-d0-2. The text has this: Beating colonies started to be observed by Flk-d4. […] Experiment 1: differentiation from mesoderm to cardiomyocytes. […] Experiment 2: differentiation from undifferentiated ES cells to mesoderm. […] Experiment 3: differentiation from mesoderm to cardiac progenitors. […] Experiment 4: differentiation from cardiac progenitors to cardiomyocytes.
Medium was replaced every 2 days.

Take `C=CC[C@@H]1/C=C(\C)C[C@H](C)C[C@H](OC)[C@H]2O[C@@](O)(C(=O)C(=O)N3CCCC[C@H]3C(=O)O[C@H](/C(C)=C/[C@@H]3CC[C@@H](O)[C@H](OC)C3)[C@H](C)[C@@H](O)CC1=O)[C@H](C)C[C@@H]2OC` [FK506]: in experiment [1], the “effect on cardiomyocyte induction (cTnT staining)” value is “no significant effect”.

For TGF-β, in the experiment on Flk1+ cells, the “cardiomyocytes at Flk-d6 after mesoderm-specific addition” value (from here on “cardiomyocytes at Flk-d6”) is reported as “significant decrease”. As for 11R-VIVIT, the “effect on cardiomyocyte induction (cTnT staining)” value in experiment [1] is “no significant effect”.

B1: Dkk1: factor from R&D Systems (protein, UniProt O94907 32-266, looked up)
Dickkopf-related protein 1: TLNSVLNSNAIKNLPPPLGGAAGHPGSAVSAAPGILYPGGNKYQTIDNYQPYPCAEDEECGTDEYCASPTRGGDAGVQICLACRKRRKRCMRHAMCCPGNYCKNGICVSSDQNHFRGEIEETITESFGNDHSTLDGYSRRTTLSSKMYHTKGQEGSVCLRSSDCASGLCCARHFWSKICKPVLKEGQVCTKHRRKGSHGLEIFQRCYCGEGLSCRIQKDHHQASNSSRLHTCQRH
In the case of B1, in the experiment on Flk1+ cells, the “cardiomyocytes at Flk-d6” value is “significantly increased” and the “effect on cardiomyocytes relative to that of CSA” value is “much weaker”.

B2: wnt3a: factor from R&D Systems (protein, UniProt P56704 19-352, looked up)
Protein Wnt-3a: SYPIWWSLAVGPQYSSLGSQPILCASIPGLVPKQLRFCRNYVEIMPSVAEGIKIGIQECQHQFRGRRWNCTTVHDSLAIFGPVLDKATRESAFVHAIASAGVAFAVTRSCAEGTAAICGCSSRHQGSPGKGWKWGGCSEDIEFGGMVSREFADARENRPDARSAMNRHNNEAGRQAIASHMHLKCKCHGLSGSCEVKTCWWSQPDFRAIGDFLKDKYDSASEMVVEKHRESRGWVETLRPRYTYFKVPTERDLVYYEASPNFCEPNPETGSFGTRDRTCNVSSHGIDGCDLLCCGRGHNARAERRREKCRCVFHWCCYVSCQECTRVYDVHTCK
For B2, in the experiment on Flk1+ cells, the “cardiomyocytes at Flk-d6” value is given as “significant decrease”.

Values taken from patent US8765465B2, “Efficient production and use of highly cardiogenic progenitors and cardiomyocytes from embryonic and induced pluripotent stem cells” (Kyoto University, priority 2008, dated 2014).
